Starred links: 1 amine or outer side, 2 acyl side, 3 side chain; linkers in the order of their positions; H or OH if unused. Non-standard residues stand in square brackets, D forms with d. No end group written: not given here. Tyr(3-Ac) = 3-acetyl-tyrosine, CC(=O)c1cc(C[C@H](N[*:1])C(=O)[*:2])ccc1O[*:3]

Usually Kd stands for the constant that tells how readily two partners part at equilibrium.

For the assay, the target named is rhodamine labeled TAR RNA (TAR-Rh). The experiment in a line: FRET fluorescence quenching titration of fluorescein labeled Tat peptide with rhodamine labeled TAR RNA. In kind it is binding, HIV-1. The note with it: quenching of Tat-Fl (5 nM) emission at 512 nm with increasing TAR-Rh, 50 mM Tris-HCl, pH 7.4 at 25° C., 20 mM KCl, fit to quadratic equation (1), read-out: dissociation constant (KD). As to the method:
FIG. 2(B). Fluorescence intensity of Tat-Fl (5 nM) at 512 nm in the presence of increasing TAR-Rh concentrations. The solid line represents the best fits of the data by nonlinear regression to quadratic equation (1). The fluorescence measurements were performed on PTI fluorescence spectrophotometer controlled by Felix software. The excitation wavelength was 492 nm and slits width was set 3.5 nm for both excitation and emission. All samples were corrected for the light source excitation effect and for the background intensity of buffer fluorescence as well as for dilution factors. Buffer conditions: […] Tris-HCl, pH 7.4 at 25° C., 20 mM KCl.
To determine the binding affinities of a Tat peptide under physiological conditions and test the application of acetyl-Tyr, we developed a fluorescence resonance energy transfer (FRET) system containing TAR RNA and a Tat peptide uniquely labeled with donor and acceptor dye molecules (FIG. 1). […] (Clegg, R. M. (1992) Fluorescence resonance energy transfer and nucleic acids, Methods Enzymol. 211, 353–88; Yang, M., and Millar, D. P. (1997) Fluorescence resonance energy transfer as a probe of DNA structure and function, Methods Enzymol. 278, 417–444). The donor's lifetime and quantum yield are reduced upon energy transfer, and the acceptor fluorescence is increased, or sensitized. […]

In the case of “Acetyl-Tyr-Tat peptide: HIV-1 Tat peptide (amino acids 47–56) with Tyr-47 replaced by 3-Acetyl-Tyrosine ([Tyr(3-Ac)]GRKKRRQRR)”, the Kd is 1 ± 0.5 nM.

(Values after patent US7029846B2, “Site-specific protein modification” (University of Medicine and Dentistry of New Jersey, priority 2000, dated 2006).)
